From US7964613B2 (Asahi Kasei Pharma Corporation, priority 2007, dated 2011)

Key:
[1] = tested on: rabbit normal intraocular pressure; experiment: Intraocular pressure reducing action; format: in vivo, Japanese white rabbit; details: Oryctolagus cuniculus, topical, read-out: intraocular pressure reducing degree; for inhibition in vivo at 3000 µM: 3 mM aqueous solution, 50 μl to the left eye, max IOP reduction (2, 4, 6 hours) / value immediately before administration; for inhibition in vivo at 1000 µM: test compound of 1 mM, same test as Test Example 3
Summary of the method: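 Japanese white rabbits (~2 kg) under topical anaesthesia received 50 μl of a 3 mM aqueous test solution in the left eye, right eye untreated. IOP read by tonometer before and at 2, 4, 6 h; maximal left–right difference divided by pre-dose IOP ×100 gives % reduction.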

TNF-α production = experiment: Inhibitory effect on TNF-α production in mice (LPS); format: in vivo, BALB/c mice; details: Mus musculus, 1.5 h; oral administration of 30 mg/kg, LPS 5 μg i.p. 60 minutes later, plasma after 90 minutes; read-out: TNF-α production suppressing action
Method: BALB/c mice (Japan CRJ, famale) were used as experimental animals. Each test compound was dissolved in distilled water at a concentration suitable for the examination. The weight of each mouse was measured, a test compound solution was orally administered in a volume corresponding to 10 ml/kg, and only distilled water was administered to the control group. Each group consisted of five to seven animals. LPS was dissolved in physiological saline, and intraperitoneally administered to each mouse in an amount of 5 μg. The test compound was administered first, and LPS (lipopolysaccharide, Sigma) was administered 60 minutes later. After 90 minutes, blood was collected from the abdominal large vein in the presence of heparin, and plasma was obtained by centrifugation. TNF-α content in the plasma was measured by using the ELISA method.

[2] = tested on: mouse neuroblastoma cell strain N1E-115; experiment: Inhibitory effect on neurite retraction (LPA-induced); format: cell-based; details: mouse/rat NG108-15; 10 μM compound, 1 μM LPA, N1E-115 cells
Method: An experiment for Inhibitory effect on neurite retraction using mouse neuroblastoma cell strain N1E-115 was performed according to the method of Hirose, M. et al. (J. Cell. Biol., 141, pp. 1625-1636 (1998)). This method utilizes the fact that LPA (lysophosphatidic acid), which is a endogenous substance, induces neurite retraction, and is a method of evaluating how much a drug can inhibit the LPA-induced neurite retraction and thereby evaluating potency of inhibition of neuronal degeneration and potency of neuronal regeneration of the drug. N1E-115 cells cultured in a DMEM solution containing 20% heat-inactivated fetal bovine serum were plated on a 6-well plate (IWAKI) at a density of 40,000 cells/well, and cultured overnight at 37° C. in the same culture medium in a 5% CO2 incubator. In order to induce differentiation of the N1E 115 cells into nerve cells, the culture medium was changed to the serum-free DMEM solution, and the cells were cultured for 1 or 2 days at 37° C. in the 5% CO2 incubator until most of the cells extended the neurites. On the examination day, each compound of the present invention was added at a final concentration of 10 μM, incubation was performed for 30 minutes, then LPA (Sigma) was added at a final concentration of 1 μM, and incubation was further performed for 10 minutes. To the control, the same volume of phosphate buffered saline as the solvent was added. After completion of the incubation, glutaraldehyde was added at a final concentration of 5% to fix the cells. […] The inhibition rate (%) of each drug was calculated by using the following equation. Inhibition rate(%)=100−(RCP obtained with drug to be evaluated−RCP of control)/(RCP obtained with LPA−RCP of control)×100

[3] = tested on: thoracic aorta ring sample; experiment: Rat vascular smooth muscle relaxing action (phenylephrin contraction); details: cumulative phenylephrin, contraction relative to 60 mM KCl
Method: Examination of rat vascular smooth muscle relaxing action was performed as follows. A rat was anesthetized with pentobarbital sodium, and bled from the carotid artery, and then the thoracic aorta was extracted. The extracted vessel was immersed in ice-cooled Krebs-Henseleit nutrient solution bubbled with a mixed gas of 95% O2+5% CO2 to wash out the blood in the internal cavity of the vessel with the nutrient solution, and then stored overnight in the nutrient solution at 4° C. Then, connective tissues and lipids were removed from the vessel under a stereoscopic microscope, and a ring sample having a width of about 3 mm was prepared. The ring sample was hung in an organ bath containing the nutrient solution of 37° C., and a resting tension of 2.5 g was loaded on the sample. After the ring sample was stabilized for about 90 minutes, it was confirmed that a contraction reaction could be obtained by addition of 60 mM KCl alone. A test drug was added to the nutrient solution at an appropriate final concentration, and incubation was performed for 10 minutes. Then, phenylephrin was cumulatively added so that the concentration should become 1 nM, 10 nM, 100 nM, 1 μM and 10 μM.

Compound | inhibition in vivo at 3000 µM [1] | inhibition in vivo at 30 mg/kg (TNF-α production) | inhibition at 10 µM [2] | IC50 [3] | inhibition in vivo at 1000 µM [1]
CN[C@H]1CCN(S(=O)(=O)c2cccc3c(O)ncc(Cl)c23)C1 [Example 36-1, (S)-1-(1-Hydroxy-4-chloro-5-isoquinolinesulfonyl)-3-(methylamino)pyrrolidine] | 10 to 20% | ≥ 50% | ≥ 50% | 100 nM | –
N[C@H]1CCN(S(=O)(=O)c2cccc3cncc(Cl)c23)C1 [Example 19-1, (S)-3-Amino-1-(4-chloro-5-isoquinolinesulfonyl)pyrrolidine] | ≥ 20% | ≥ 50% | ≥ 50% | – | –
CN[C@H]1CCN(S(=O)(=O)c2cccc3cncc(Cl)c23)C1 [Example 19-3, (S)-1-(4-Chloro-5-isoquinolinesulfonyl)-3-(methylamino)pyrrolidine] | ≥ 20% | ≥ 50% | ≥ 50% | 300 nM | ≥ 20%
CN[C@H]1CCN(S(=O)(=O)c2cccc3cncc(C)c23)C1 [Example 8-3] | ≥ 20% | ≥ 50% | ≥ 50% | – | ≥ 20%
